# Measured values taken from patent publication US5132302A, “Use of aromatic aminoalkoxy derivatives for the treatment of troubles of the cerebrovascular system” (priority 1989, dated 1992).
# pIC50: −log10 of the molar value. Read-outs that look alike come from different tables or passages of the source.
# System: isolated balisar artery of a rabbit
# Experiment: test of contractions of the isolated balisar artery of a rabbit in a hypopotassic medium (contraction induced by KC1)
# Assay type: cell-based
# Conditions: Oryctolagus cuniculus, read-out: IC50 (concentrations which reduce by 50% the amplitude of the contraction induced by KC1)
# Procedure: The protocol of this test is the following. The rabbit is anaesthetized with pentobarbital at a dose of 30 mg/kg then sacrificed by exsanguination and decapitated at the level of the third cervical vertebra. The balisar artery is removed (1.5 cm) between the vertebral arteries and the polygon of Willis. The balisar artery is then cut in a spiral at an angle of 45° . It is fixed by means of a curved needle between an L shaped glass carrier and a displacement sensor (Grass, type FT03). A mechanical tension of 500 mg is applied to the vessel before letting it reach its balance state.
# For a period of an hour, the vessel is rinsed every twenty minutes until a stable level is obtained.
# The tonic contraction consecutive to depolarization caused by KC1 is dependent on the calcic movements for it is abolished by the suppression of calcium in the survival medium.
# [1] = isolated rabbit balisar artery, KC1 at 35 mmoles
SMILES,pIC50,pIC50 [1]
COc1cc(F)c(OC)c(OCCN2CCCCC2)c1C(O)CCc1ccc(O)cc1 (stereo not shown) [compound 72],8.52,
COc1cc(Cl)c(OC)c(OCCN2CCCCC2)c1C(O)CCc1ccc(O)cc1 (stereo not shown) [compound 69],,8.64
COc1cc(Cl)c(OC)c(OCCN(C(C)C)C(C)C)c1C(O)CCc1ccc(O)cc1 (stereo not shown) [compound 71],,8.01
CCN(CC)CCOc1c(OC)c(Cl)cc(OC)c1C(O)CCc1ccc(O)cc1 (stereo not shown) [compound 70],,8.14
COc1ccc(OC)c(C(O)CCc2ccccc2)c1OCCN1CCCCC1 (stereo not shown) [compound 3],,6.40
COc1ccc(OC)c(C(O)CCc2ccc(O)cc2)c1OCCN1CCCCC1 (stereo not shown) [compound 10],,7.59
COc1cc([N+](=O)[O-])c(OC)c(C(O)CCc2ccc(O)cc2)c1OCCN1CCCCC1 (stereo not shown) [compound 74],,8.85
